# Tests used:
# [1] = biological target: T1, Serine/threonine-protein kinase pim-1 (Homo sapiens, UniProt P11309); test: Inhibition of full-length human PIM1 using RSRHSSYPAGT as substrate assessed as residual kinase activity at 10 uM after 30 mins in presence of [gamma-33P]ATP
# Target sequence in this assay (P11309 whole entry, looked up): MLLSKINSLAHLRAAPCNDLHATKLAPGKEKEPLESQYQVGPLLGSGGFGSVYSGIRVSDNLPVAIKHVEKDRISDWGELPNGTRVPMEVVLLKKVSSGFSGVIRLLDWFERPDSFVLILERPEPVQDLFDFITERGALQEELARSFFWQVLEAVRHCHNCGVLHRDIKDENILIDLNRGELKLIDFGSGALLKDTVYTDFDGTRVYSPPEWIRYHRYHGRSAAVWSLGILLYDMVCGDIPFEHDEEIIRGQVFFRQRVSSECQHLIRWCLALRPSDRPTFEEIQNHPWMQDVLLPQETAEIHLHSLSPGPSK
# [2] = biological target: T2, Serine/threonine-protein kinase pim-3 (Homo sapiens, UniProt Q86V86); test: Inhibition of full-length human PIM3 using RSRHSSYPAGT as substrate assessed as residual kinase activity at 10 uM after 30 mins in presence of [gamma-33P]ATP
# [3] = biological target: T2, Serine/threonine-protein kinase pim-3; test: Inhibition of full-length human PIM3 using RSRHSSYPAGT as substrate assessed as residual kinase activity at 1 uM after 30 mins in presence of [gamma-33P]ATP
# [4] = biological target: T1, Serine/threonine-protein kinase pim-1; test: Inhibition of full-length human PIM1 using RSRHSSYPAGT as substrate assessed as residual kinase activity at 1 uM after 30 mins in presence of [gamma-33P]ATP
# Target sequence in this assay (P11309 whole entry, looked up): as the sequence (P11309 whole entry, looked up) above
# [5] = biological target: Serine/threonine-protein kinase pim-2 (Homo sapiens) (UniProt Q9P1W9); test: Inhibition of full-length human PIM2 using RSRHSSYPAGT as substrate assessed as residual kinase activity at 10 uM after 30 mins in presence of [gamma-33P]ATP
# Chain of Serine/threonine-protein kinase pim-2 (Homo sapiens) (Q9P1W9 whole entry, looked up): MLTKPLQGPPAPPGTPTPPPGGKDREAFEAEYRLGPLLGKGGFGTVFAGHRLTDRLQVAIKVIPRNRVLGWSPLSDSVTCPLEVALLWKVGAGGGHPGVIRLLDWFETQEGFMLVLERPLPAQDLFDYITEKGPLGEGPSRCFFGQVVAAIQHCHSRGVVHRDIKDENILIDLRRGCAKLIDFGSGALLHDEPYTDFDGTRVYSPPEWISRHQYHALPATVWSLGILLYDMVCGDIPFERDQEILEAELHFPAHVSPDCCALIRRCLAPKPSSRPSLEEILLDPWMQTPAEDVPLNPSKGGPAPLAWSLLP
# [6] = biological target: Serine/threonine-protein kinase pim-2 (Homo sapiens) (UniProt Q9P1W9); test: Inhibition of full-length human PIM2 using RSRHSSYPAGT as substrate assessed as residual kinase activity at 1 uM after 30 mins in presence of [gamma-33P]ATP
# [7] = biological target: T1, Serine/threonine-protein kinase pim-1; test: Inhibition of full-length human PIM1 using RSRHSSYPAGT as substrate assessed as residual kinase activity after 30 mins in presence of [gamma-33P]ATP
# Target sequence in this assay (P11309 whole entry): as the sequence (P11309 whole entry, looked up) above
# [8] = Antiproliferative activity against human PC3 cells at 10 uM after 72 hrs by MTS assay; format: functional; conditions: PC-3, 72 h
# LNCaP = test: Antiproliferative activity against human LNCAP cells at 10 uM after 72 hrs by MTS assay; format: functional
# [9] = biological target: T2, Serine/threonine-protein kinase pim-3; test: Inhibition of full-length human PIM3 using RSRHSSYPAGT as substrate assessed as residual kinase activity after 30 mins in presence of [gamma-33P]ATP
# [10] = Antiproliferative activity against human PC3 cells after 72 hrs by MTS assay; format: functional, cell-based; conditions: PC-3, 72 h
smiles,measurement,setting,value
Nc1cc2[nH]ncc2c2c1ncc1ccccc12,Activity,[1],17%
same,Activity,[2],24%
same,Activity,[3],55%
same,Activity,[4],55%
same,Activity,[5],43%
same,Activity,[6],86%
COc1ccc2c(cnc3c(N)cc4[nH]ncc4c32)c1,Activity,[1],35%
same,Activity,[2],16.5%
same,Activity,[3],60%
same,Activity,[4],96%
same,Activity,[5],84%
same,Activity,[6],100%
O=[N+]([O-])c1cc2[nH]ncc2c2c1ncc1ccccc12,IC50,[7],70 nM
same,inhibition at 10 µM,[8],68%
same,Activity,[1],2.2%
same,inhibition at 10 µM,LNCaP,54%
same,Activity,[2],0.9%
same,Activity,[3],6%
same,Activity,[4],16%
same,IC50,[9],20 nM
same,IC50,[10],2460 nM
same,Activity,[5],8.1%
same,Activity,[6],46%
Nc1cc2[nH]ncc2c2c1ncc1c(F)cccc12,Activity,[1],16%
same,Activity,[2],7.9%
same,Activity,[3],42%
same,Activity,[4],90%
same,Activity,[5],76%
same,Activity,[6],110%
Nc1cc2[nH]ncc2c2c1ncc1ccc(Cl)cc12,Activity,[1],18%
same,Activity,[2],10.5%
same,Activity,[3],50%
same,Activity,[4],88%
same,Activity,[5],57%
same,Activity,[6],96%
O=[N+]([O-])c1cc2[nH]ncc2c2c1ncc1c(F)cccc12,inhibition at 10 µM,[8],37%
same,Activity,[1],19%
same,inhibition at 10 µM,LNCaP,46%
same,Activity,[2],6.7%
same,Activity,[3],14%
same,Activity,[4],46%
same,IC50,[9],169 nM
same,Activity,[5],66%
same,Activity,[6],84%
c1ccc2c(c1)cnc1ccc3[nH]ncc3c12,Activity,[1],11%
same,Activity,[2],47%
same,Activity,[3],98%
same,Activity,[4],44%
same,Activity,[5],38%
same,Activity,[6],84.6%
O=[N+]([O-])c1cc2[nH]ncc2c2c1ncc1cc3c(cc12)OCO3,inhibition at 10 µM,[8],60%
same,Activity,[1],15.8%
same,inhibition at 10 µM,LNCaP,54%
same,Activity,[2],7%
same,Activity,[3],18.9%
same,Activity,[4],53%
same,IC50,[9],400 nM
same,IC50,[10],5000 nM
same,Activity,[5],54%
same,Activity,[6],92%
O=[N+]([O-])c1cc2[nH]ncc2c2c1ncc1ccc(Cl)cc12,inhibition at 10 µM,[8],75%
same,Activity,[1],9%
same,inhibition at 10 µM,LNCaP,31%
same,Activity,[2],4%
same,Activity,[3],8.9%
same,Activity,[4],28%
same,IC50,[9],200 nM
same,IC50,[10],3000 nM
same,Activity,[5],47%
same,Activity,[6],83%
COc1ccc2c(cnc3c([N+](=O)[O-])cc4[nH]ncc4c32)c1,IC50,[7],120 nM
same,inhibition at 10 µM,[8],73%
same,Activity,[1],15%
same,inhibition at 10 µM,LNCaP,40%
same,Activity,[2],5.5%
same,Activity,[3],8%
same,Activity,[4],20%
same,IC50,[9],140 nM
same,IC50,[10],1100 nM
same,Activity,[5],55%
same,Activity,[6],64%

# — ChEMBL document CHEMBL3352653, “Synthesis of pyrazolo[4,3-a]phenanthridines, a new scaffold for Pim kinase inhibition” (Bioorg Med Chem, 2014)
